In patent publication US20080103086A1, “METHODS FOR THE TREATMENT OF DISEASES ASSOCIATED WITH THE SECRETION OF HMGB1” (priority 2006, published 2008):

What was measured:
HMGB1-GFP = HMGB1-GFP imaging in transfected RAW 264.7 cells; assay type: cell-based, Murine; details: OA 100 nM 4 h, TSA 10 ng/mL 2 h, TNF-α 20 ng/mL 16 h
Protocol: RAW 264.7 cells (A) and human PBMo cells (B) were treated with OA (100 nM for 8 h), and immunofluorescent staining was performed to observe the HMGB1. TNF-α (20 ng/mL for 16 h) was used as a positive control cytokine. […] (C) Western blot analysis of HMGB1 protein in the culture supernatants of PBMo cells, which were from (B). (D) HMGB1 in the nucleus is transported to the cytoplasm by phosphorylation. RAW 264.7 cells were transfected with a wild type HMGB1-GFP plasmid and cultured for 24 h. And then the cells were treated with 2 μg/mL CHX for 1 h followed by OA treatment for 4 h or by TSA treatment for 2 h and green fluorescent images were observed. Bar: 10 μm.
FIGS. 6A-6E show Mutation of HMGB1 NLS sites alters subcellular distribution of HMGB1. (A) RAW 264.7 cells were transfected with wild-type and each mutant HMGB1-GFP plasmid and immunofluorescent assays were performed 24 h later without any treatment. (B, C, and D) OA (100 nM for 4 h), TSA (10 ng/mL for 2 h), and TNF-α (20 ng/mL for 16 h) were applied 24 h after transfection to observe the effect on HMGB1 nuclear export by phosphorylation, acetylation, or both. […] (E) Secretion of wild-type and each mutant HMGB1-GFP was tested 24 h after transfection by Western blotting. The culture supernatants were concentrated and blotted with anti-GFP. Bar: 10 μm. […]

HMGB1 binding to KAP-α1 = assay: GST-KAP-α1 pull-down of HMGB1 from treated RAW 264.7 cell lysates; details: GST-KAP-α1 on glutathione-Sepharose beads; WCLs of treated RAW 264.7 cells
Protocol: FIGS. 4A-4C show the binding of HMGB1 to nuclear import proteins. (A) GST-KAP-α1, -2, -3, -4, -5, -6, and -β1 fusion proteins immobilized on glutathione-Sepharose 4B beads were incubated with WCLs of RAW 264.7 cells overnight at 4° C. Sepharose-bound proteins were separated and the membrane was blotted with anti-HMGB1 and reblotted with anti-GST. WCL was loaded as an HMGB1 control (lane 1), and GST protein was used as a negative control (lane 2). (B) Six His-tagged wild type HMGB1 and boxes A (aa 1-87) and B (aa 88-162) HMGB1 proteins were purified from E. coli BL21 and identified at expected size by Coomassie blue staining. HMGB1 and GST-KAP-α1 was incubated for 2 h at 4° C., and the precipitate was blotted with anti-His for HMGB1 and reblotted with anti-GST for KAP-α1. (C) GST-KAP-α1, immobilized on glutathione-Sepharose beads, was incubated with WCLs of RAW 264.7 cells which were treated with OA, TSA, or TNF-α. The precipitates were blotted with anti-HMGB1 and reblotted with anti-GST.
Two μg of each GST-KAP protein was coupled to glutathione sepharose 4B beads and incubated with 500 μg of WCL from RAW 264.7 cells as a HMGB1 source at 4° C. overnight. […]

HMGB1 = HMGB1 relocation from nucleus to cytoplasm in RAW 264.7 cells (fraction Western blot, immunofluorescence); assay type: cell-based, Murine; details: OA 100 nM for 8 h, TNF-α 20 ng/mL for 16 h
Protocol: (A) RAW 264.7 cells were treated with TNF-α (20 ng/mL for 16 h) or OA (100 nM for 8 h). The nuclear (Nu) and cytoplasmic (Cyt) proteins were separated and blotted with anti-HMGB1. (B) Metabolic [^32P] labeling of HMGB1 in RAW 264.7 cells. RAW 264.7 cells were metabolically labeled with [^32P]orthophosphate for 4 h, and stimulated with OA (100 nM), TNF-α (20 ng/mL) and LPS (100 ng/mL) for 2 or 8 h. WCLs were immunoprecipitated with rabbit anti-HMGB1 from two different vendors of BD PharMingen (BD) and Upstate Biotechnology (UP). The proteins were resolved and transferred to nitrocellulose membrane and visualized by autoradiography. (C) RAW 264.7 cells were treated with TNF-α, and WCLs were immunoprecipitated with anti-pSer, anti-pTyr, and anti-pThr and blotted with anti-HMGB1. WCL was loaded as an HMGB1 control (lane 1). Anti-pAKT was used for a control antibody (lane 3). […]
To analyze the secretion of HMGB1 in the supernatants, culture media were replaced with serum-free OPTI-MEM (Gibco BRL) medium and concentrated with Amicon Centricon filtration (Millipore) after removing cell debris, and Western blot analysis was performed. […] The cells were lysed using 1% Nonidet P-40 buffer containing a protease inhibitor cocktail (Sigma), and the protein concentrations were measured by Bradford assay (Biorad) for the analysis of whole cell lysates (WCLs). […]

HMGB1 phosphorylation = assay: Metabolic [32P] labeling / immunoprecipitation of HMGB1 phosphorylation in RAW 264.7 cells; assay type: cell-based, Murine
Protocol: (A) RAW 264.7 cells were treated with TNF-α (20 ng/mL for 16 h) or OA (100 nM for 8 h). The nuclear (Nu) and cytoplasmic (Cyt) proteins were separated and blotted with anti-HMGB1. (B) Metabolic [^32P] labeling of HMGB1 in RAW 264.7 cells. RAW 264.7 cells were metabolically labeled with [^32P]orthophosphate for 4 h, and stimulated with OA (100 nM), TNF-α (20 ng/mL) and LPS (100 ng/mL) for 2 or 8 h. WCLs were immunoprecipitated with rabbit anti-HMGB1 from two different vendors of BD PharMingen (BD) and Upstate Biotechnology (UP). The proteins were resolved and transferred to nitrocellulose membrane and visualized by autoradiography. (C) RAW 264.7 cells were treated with TNF-α, and WCLs were immunoprecipitated with anti-pSer, anti-pTyr, and anti-pThr and blotted with anti-HMGB1. WCL was loaded as an HMGB1 control (lane 1). Anti-pAKT was used for a control antibody (lane 3). (D) RAW 264.7 cells were treated with TNF-α for the indicated time. WCLs were immunoprecipitated with anti-HMGB1, blotted with anti-pSer and reblotted with anti-HMGB1. The same culture supernatants were concentrated, separated, and blotted with anti-HMGB1.
To identify the phosphorylated residues of the HMGB1 protein, TNF-α-treated RAW 264.7 cells were lysed with a protease inhibitor cocktail. Cell homogenates were centrifuged at 20,000 g for 15 min and precleared by incubation with protein G-Sepharose (Amersham) at 4° C. for 30 min. The precleared extracts (500 μg) were incubated with rabbit polyclonal anti-pSer, anti-pTyr and anti-pThr (all from Chemicon) and then protein G-Sepharose was added and incubated for 3 h at 4° C. […]
RAW 264.7 cells were cultured in phosphate starved condition of phosphate-free DMEM containing 10% dialyzed FBS (Gibco BRL) for 4 h and further incubated for 4 h by adding 600 μCi of [^32P]orthophosphate (Amersham Pharmacia Biotech) per mL to each dish. […] The concentration of total soluble proteins in the supernatant was quantified using the Bradford reagent (Bio-Rad). […] The gels were dried and the radioactivity was analyzed by autoradiography.

Compound	HMGB1-GFP (wild-type and mutants) relocation 24 h after transfection (HMGB1-GFP)	binding of HMGB1 from treated cell lysate to KAP-α1 (HMGB1 binding to KAP-α1)	HMGB1 in the cytoplasm (nuclear/cytoplasmic fractions, Western blot) (HMGB1)	level of phosphorylated (p-) HMGB1 (IP anti-HMGB1, blot anti-pSer) (HMGB1 phosphorylation; RAW 264.7 cells treated with TNF-α for the indicated time)	phosphorylated amino acid residue of HMGB1 (IP anti-pSer, anti-pTyr, anti-pThr) (HMGB1 phosphorylation; RAW 264.7 cells, 20 ng/mL TNF-α for 16 h)	HMGB1 phosphorylation ([32P]orthophosphate labeling, autoradiography) (HMGB1 phosphorylation; RAW 264.7 cells, 100 nM OA, 20 ng/mL TNF-α, 100 ng/mL LPS, 2 or 8 h)
CC(/C=C/C(=O)NO)=C\[C@@H](C)C(=O)c1ccc(N(C)C)cc1 [TSA, trichostatin A]	the wild-type and all mutant HMGB1-GFPs showed cytoplasmic relocation	no binding to KAP-α1				
TNF-α	The same results were observed		translocation of nuclear HMGB1 to the cytoplasm	increased by TNF-α in a time-dependent manner	Only serine residues of HMGB1 were phosphorylated	phosphorylated
